Where two headings read alike, the source gives them in different places.
Columns and labels:
[1] = Vancomycin trough and peak concentrations, fluorescence polarization immunoassay; format: in vivo, Chinese neonates; conditions: after at least four doses, 10–15 mg/kg q8h or q12h, FPIA
Protocol: Concentrations of vancomycin were determined using the fluorescence polarization immunoassay with an ARCHITECT i2000SR (Abbott Laboratories, Chicago, IL, USA). The limit of detection was 1 mg/L, and the calibration range of this assay was 3 to 50 mg/L. The intra-day and inter-day coefficients of variation (CVs) were all < 20%.

[2] = cited from earlier work
Excerpt: The maximum a posteriori Bayesian estimation method has already been used to support vancomycin dosing decisions in adults (Deng et al., [2013]; Jacqz-Aigrain et al., [2015]) and children (Le et al., [2014]). To obtain accurate estimation with this method for individualized therapy, it is crucial that reliable population pharmacokinetic characteristics are known for the target patients. […] (H ...

[3] = Population pharmacokinetic modeling of vancomycin (NONMEM, FOCE-I, one-compartment, first-order elimination); conditions: for θ4, volume of distribution V / θ5, exponent of body weight on V / θ1, clearance CL: final model
Protocol: Chinese neonates who received vancomycin in the neonatal ICU at Shanghai Children's Hospital (Shanghai, China) between January 2013 and December 2016 were enrolled. Patients included in this study were neonates with PMA ≤ 48 weeks for preterm neonates and with postnatal age (PNA) ≤ 28 days for term neonates. All patients were treated with vancomycin for at least 3 days, and at least one vancomycin concentration was assayed. Patients with extracorporeal membrane oxygenation or continuous renal replacement therapy were excluded from the current study. The following information was retrospectively collected from electronic medical records: gestational age (GA), PMA, PNA, body weight (WT), dosing history and concentration of vancomycin, serum creatinine (Scr) levels, clinical laboratory tests of other renal and hepatic functions, and co-administered medications.
The dose of vancomycin (Vancocin, Lilly, S.A, Suzhou, China) was 10–15 mg/kg, which was administrated every 8 h (q8h) or every 12 h (q12h) with a 2-h infusion, in accordance with local protocols. Blood samples were collected 1 h after completion of drug infusion (peak concentration) or half an hour before the start of vancomycin administration (trough concentration) for each patient. Trough and peak concentrations were obtained after at least four repeated doses. Potential outlier data points (observations) were identified by employing conditional weighted residual (CWRES) results outside a range of ± 6 (Byon et al., [2013]).
Population pharmacokinetic modeling was performed using the NONMEM program (Version 7.4; Icon Inc, PA, USA) compiled with gFortran (Version 4.9.2; http://www.gfortran.org). R (Version 3.3.1; http://www.r-project.org) and the Xpose package (Version 4.5.3; http://xpose.sourceforge.net) were used for visual diagnosis. The first-order conditional estimation method with η–ε interaction (FOCE-I) was used throughout the model-building procedure (Wählby et al., [2001]).
The vancomycin concentration data were fitted by the one or two compartment with a first-order elimination model. NONMEM subroutines were specified as ADVAN1-TRANS2 or ADVAN3-TRANS4, respectively.
An exponential model (Equation 1) was used to account for inter-individual variability (IIV):
Residual unexplained variability was tested by an additive model (Equation 2), exponential model (Equation 3), or a combined additive and exponential model (Equation 4):
Four different models based on allometric scaling were tested using Equation (5): (5) Pi= TV(P)×(COV/COVmedian)^θ×MF
The robustness of the model was assessed using a nonparametric bootstrap (Ette, [1997]), with repetition of 2000 NONMEM runs of the final model. The bootstrap median parameter values and the percentile bootstrap 95% confidence intervals were compared with the respective values estimated from the final model.

[4] = Model III, WT-dependent exponent model
[5] = Model IV, age-dependent exponent model

SMILES: CN[C@H](CC(C)C)C(=O)N[C@H]1C(=O)N[C@@H](CC(N)=O)C(=O)N[C@H]2C(=O)N[C@H]3C(=O)N[C@H](C(=O)N[C@H](C(=O)O)c4cc(O)cc(O)c4-c4cc3ccc4O)[C@H](O)c3ccc(c(Cl)c3)Oc3cc2cc(c3O[C@@H]2O[C@H](CO)[C@@H](O)[C@H](O)[C@H]2O[C@H]2C[C@](C)(N)[C@H](O)[C@H](C)O2)Oc2ccc(cc2Cl)[C@H]1O [vancomycin]
- Peak concentration, median (range) ([1]; 1 h after completion of 2-h infusion, 90 peak samples): 20.3 (4.09–51.9) mg/L
- Peak concentration ([1]; column 'Modeling group' (value ± spread), 1 h after completion of 2-h infusion, 90 peak samples): 22.3 ± 11.0 mg/L
- Trough concentration ([1]; column 'Modeling group' (value ± spread), half an hour before administration, 2-h infusion, 75 trough samples, 80 neonates): 11.2 ± 7.92 mg/L
- Trough concentration, median (range) ([1]; half an hour before administration, 2-h infusion, 75 trough samples): 9.15 (3.14–42.9) mg/L
- clearance (CL) ([2]; adult Caucasian patients, first of two values, ref Guay et al., [1993], Sánchez et al., [2010]): 4.03 ± 1.7 L/h
- clearance (CL) ([2]; adult Caucasian patients, second of two values, ref Guay et al., [1993], Sánchez et al., [2010]): 5.83 ± 2.39 L/h
- clearance (CL) ([2]; adult Chinese patients, second of two values, ref He et al., [2014], Lin et al., [2015]): 6.06 ± 2.46 L/h
- average clearance across all three populations ([2]; neonatal patient with weight of 3 kg and PMA of 40 weeks, Caucasian, Japanese, Malaysian neonates, ref Seay et al., [1994] to Lo et al., [2010] (b5)): 0.08 to 0.50 L/h
- k, exponent for body weight (RSE%) ([3]; Model I, simple exponent model): 1.57 (10.9%)
- CLp typical value of apparent clearance (RSE%) ([3]; Model I, simple exponent model, MF = 1): 0.319 (5.1%) L/h
- Hill (RSE%) ([3]; Model II, maturation model): 4.45 (105%)
- TM50, age at which clearance maturation reaches 50% of that of adults (RSE%) ([3]; Model II, maturation model): 46.9 (102%)
- CLp typical value of apparent clearance (RSE%) ([3]; Model II, maturation model, k fixed 0.75): 0.911 (235%) L/h
- k50, body weight at which there is a 50 % decrease in the kmax (RSE%) ([3]; Model III): 12.7 (53.1%)
- kmax, maximum decrease of the exponent (RSE%) ([3]; Model III): 1.08 (25%)
- θ0, exponent at a theoretical WT of 0 kg (RSE%) ([3]; Model III): 1.57 (10.9%)
- CLp typical value of apparent clearance (RSE%) [3, 4]: 0.319 (5.1%) L/h
- Hill (RSE%) [3, 4]: 23.6 (17.2%)
- k50, age at which there is a 50 % decrease in the kmax (RSE%) ([3]; Model IV): 62.3 (22%)
- kmax, maximum decrease of the exponent (RSE%) ([3]; Model IV): 1.08 (25%)
- θ0, exponent at age at birth (RSE%) ([3]; Model IV): 1.57 (10.9%)
- CLp typical value of apparent clearance (RSE%) [3, 5]: 0.319 (5.1%) L/h
- Hill (RSE%) [3, 5]: 60.7 (23.4%)
- θ4, volume of distribution V ([3]; NONMEM estimate, WT 2.9 kg): 2.63 L
- θ5, exponent of body weight on V ([3]; NONMEM estimate, [WT(kg)/2.9]^θ5): 1.05
- θ1, clearance CL ([3]; NONMEM estimate, typical neonate WT 2.9 kg, Scr 23.3 μmol/L): 0.309 L/h
- θ1, clearance CL ([3]; bootstrap median, 2000 runs): 0.308 L/h
- θ4, volume of distribution V ([3]; bootstrap median, 2000 runs): 2.62 L
- θ5, exponent of body weight on V ([3]; bootstrap median, 2000 runs): 1.06
